Test [1] has as its target T1, prolactin receptor (PRLR) (Homo sapiens, UniProt P16471).
T1 construct: extracellular domain (ECD), purified recombinant
T1 sequence (P16471 25-234 limits assumed): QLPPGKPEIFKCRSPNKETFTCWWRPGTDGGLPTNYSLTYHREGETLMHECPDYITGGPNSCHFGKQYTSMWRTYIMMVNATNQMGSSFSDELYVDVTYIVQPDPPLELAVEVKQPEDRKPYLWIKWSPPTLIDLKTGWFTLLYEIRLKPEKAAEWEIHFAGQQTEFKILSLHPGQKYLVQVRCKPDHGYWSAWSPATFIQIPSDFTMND
The test can be described thus: microscale thermophoresis; confirmed by isothermal titration calorimetry. Type of test: binding.

The target of test [2] is T2, hypocretin receptor 1 (HCRTR1) (Homo sapiens, UniProt O43613).
T2 sequence (O43613 1-425): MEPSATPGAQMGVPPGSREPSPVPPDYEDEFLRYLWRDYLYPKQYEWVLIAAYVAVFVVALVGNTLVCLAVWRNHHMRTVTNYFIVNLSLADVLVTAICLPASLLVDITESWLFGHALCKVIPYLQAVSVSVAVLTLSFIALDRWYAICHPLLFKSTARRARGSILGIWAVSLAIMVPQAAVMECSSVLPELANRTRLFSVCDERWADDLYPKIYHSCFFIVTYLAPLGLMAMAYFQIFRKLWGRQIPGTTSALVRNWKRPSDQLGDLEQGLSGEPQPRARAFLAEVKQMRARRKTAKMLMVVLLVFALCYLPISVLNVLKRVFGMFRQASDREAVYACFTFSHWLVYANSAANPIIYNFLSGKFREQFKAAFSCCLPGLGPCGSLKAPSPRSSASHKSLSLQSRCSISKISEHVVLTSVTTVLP
The experiment in a line: DiscoverX GPCR selectivity panel, multiple doses. Type of test: cell-based.

Test [3] deals with T3, serotonin receptor 2C (HTR2C) (Homo sapiens, UniProt P28335).
T3 sequence (P28335 33-458): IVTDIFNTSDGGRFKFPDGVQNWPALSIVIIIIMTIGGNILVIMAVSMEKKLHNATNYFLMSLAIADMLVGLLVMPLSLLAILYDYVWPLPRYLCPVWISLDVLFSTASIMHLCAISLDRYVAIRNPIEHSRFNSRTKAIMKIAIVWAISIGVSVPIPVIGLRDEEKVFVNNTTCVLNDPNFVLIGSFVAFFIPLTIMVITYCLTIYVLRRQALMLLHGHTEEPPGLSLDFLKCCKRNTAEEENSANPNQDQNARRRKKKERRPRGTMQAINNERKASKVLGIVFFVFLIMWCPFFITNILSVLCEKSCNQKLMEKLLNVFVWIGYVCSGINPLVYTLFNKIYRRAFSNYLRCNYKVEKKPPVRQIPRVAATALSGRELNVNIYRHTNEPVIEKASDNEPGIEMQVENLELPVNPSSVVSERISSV
The experiment in a line: DiscoverX GPCR selectivity panel, multiple doses. The format is cell-based.

In test [4] the target is serotonin receptor 2A (HTR2A) (Homo sapiens, UniProt P28223). The test can be described thus: DiscoverX GPCR selectivity panel, multiple doses. Type of test: cell-based.
Sequence of serotonin receptor 2A (HTR2A) (P28223 whole entry): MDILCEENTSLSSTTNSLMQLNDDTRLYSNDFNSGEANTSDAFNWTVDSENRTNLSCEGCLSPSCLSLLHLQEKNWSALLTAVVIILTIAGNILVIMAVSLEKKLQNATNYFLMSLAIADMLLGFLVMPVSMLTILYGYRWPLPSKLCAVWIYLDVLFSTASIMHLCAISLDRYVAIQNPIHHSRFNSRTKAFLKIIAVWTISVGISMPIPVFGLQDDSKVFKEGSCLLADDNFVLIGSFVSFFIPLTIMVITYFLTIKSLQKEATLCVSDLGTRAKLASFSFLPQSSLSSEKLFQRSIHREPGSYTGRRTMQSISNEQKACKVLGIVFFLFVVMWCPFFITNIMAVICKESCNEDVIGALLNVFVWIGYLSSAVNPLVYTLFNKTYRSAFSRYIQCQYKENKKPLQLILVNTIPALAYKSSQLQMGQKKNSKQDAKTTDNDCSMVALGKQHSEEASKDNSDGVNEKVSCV

`CCN(CC)c1ccc(/C=N/NC(=O)c2c(Cl)cnn2C)c(O)c1` [SMI-6]: binding in test [1] was put at a Kd of 3.31 µM. For the same compound, the 50% inhibitory concentration (IC50) in test [2] was found to be 6.71 µM; in test [3], 3.48 µM; in test [4], 2.39 µM.

Values taken from article PMC8198871, “Suppression of Breast Cancer by Small Molecules That Block the Prolactin Receptor” (Cancers, 2021).
